Literature values in patent US10806143B2, “Herbicidal composition in granular form” (priority 2009, dated 2020).

Conditions: at 20° C.

For CCOC(=O)C(Cl)Cc1cc(-n2nc(C)n(C(F)F)c2=O)c(F)cc1Cl (stereo not shown) [carfentrazone-ethyl, ethyl 2-chloro-3-[2-chloro-5-(4-difluoromethyl-3-methyl-5-oxo-4,5-dihydro-[1,2,4]triazol-1-yl)-4-fluorophenyl]propionate], the water solubility is given as 22 milligrams per liter.
